Measurements: US12643871B2, “Aryl formamide compound containing chiral sulfur oxide or salt thereof, preparation method, herbicidal composition and use thereof” (Qingdao Kingagroot Chemical Compound Co., Ltd., priority 2019, dated 2026)

How the values were obtained:
Type in all cases: in vivo
[1] = system: key weeds such as Digitaria sanguinalis, Leptochloa chinensis; test: Comparison experiment (post-emergence, Tables 4-7), herbicidal activity on weeds not listed separately
Excerpt: The above growth control rates are fresh weight control rates.
Experiment on weeding effect in post-emergence stage: monocotyledonous and dicotyledonous weed seeds (Descurainia sophia, Capsella bursa-pastoris, Galium aparine, Stellaria media, Lithospermum arvense, Rorippa indica, Alopecurus aequalis, Beckmannia syzigachne, Sclerochloa dura, Phleum paniculatum, Bromus japonicus, Aegilops tauschii, Phalaris arundinacea, Amaranthus retroflexus, Chenopodiaceae, Commelina communis, Sonchus arvensis, convolvulus arvensis, Cirsium setosum, Solanum nigrum, Acalypha australis, Digitaria sanguinalis, Echinochloa crusgalli, Setaria viridis, Setaria glauca, Leptochloa chinensis, Monochoria vaginalis, Sagittaria trifolia, Scirpus juncoides, Cyperus rotundus, Cyperus iria, Cyperus difformis, Fimbristylis, Portulaca oleracea, Xanthium sibiricum, Pharbitis nil) and major crop seeds (wheat, corn, rice, soybean, cotton, oilseed rape, millet, sorghum, potato, sesame, ricinus) were placed in plastic pots filled with soil, then covered with 0.5-2 cm of soil, allowed to grow in a good greenhouse environment. After 2 weeks of sowing, the test plants were treated in the 2 leaf stage. The tested compounds of the present invention were respectively dissolved in acetone, then added with Tween 80 and 1.5 liter/ha of emulsifiable concentrate of methyl oleate as synergist, diluted with a certain amount of water to obtain a solution with a certain concentration, and sprayed with a spray tower onto the plants. After the application, the plants were cultured for 15 days in the greenhouse, and then the experimental results of the weeding were counted. The doses of the used compounds were 500, 250, 125, 60, 30, 15 g/ha, and the averages were obtained by repeating for three times.
If there is no clear marker, the post-seedling test conditions are the same as above, and the experimental results are shown in Tables 4-7.

[2] = system: Echinochloa crusgali; test: Weeding effect in post-emergence stage; details: 250 g/ha; 2 leaf stage; 15 days after application; fresh weight control rate
Procedure, shortened: (§1)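 Activity graded 0 (<5%) to 5 (>85%) from fresh-weight control rate, averaged over three repeats, 15 days after a spray-tower application. Plants at 2-leaf stage (2 weeks post-sowing) received 15–500 g/ha of compound formulated in acetone, Tween 80 and methyl oleate synergist (1.5 L/ha).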

[3] = system: Amaranthus retroflexus; test: Weeding effect in post-emergence stage; details: 250 g/ha; 2 leaf stage; 15 days after application; fresh weight control rate
Procedure, shortened: as §1

[4] = system: Setaria viridis; test: Weeding effect in post-emergence stage; details: 250 g/ha; 2 leaf stage; 15 days after application; fresh weight control rate
Procedure, shortened: as §1

[5] = system: Digitaria sanguinalis; test: Weeding effect in post-emergence stage; details: 250 g/ha; 2 leaf stage; 15 days after application; fresh weight control rate
Procedure, shortened: as §1

[6] = system: Abutilon theophrasti; test: Weeding effect in post-emergence stage; details: 250 g/ha; 2 leaf stage; 15 days after application; fresh weight control rate
Procedure, shortened: as §1

[7] = doses of 125, 60, 30, 15 g/ha, X replaced by other five membered rings

Structure (SMILES) | herbicidal activity and/or crop safety compared with the corresponding racemate or S configuration ([1]; no dose stated) | weeding effect in post-emergence stage, activity level (growth control rate), Echinochloa crusgali [2] | weeding effect in post-emergence stage, activity level (growth control rate), Amaranthus retroflexus [3] | herbicidal activity and/or crop safety compared with the corresponding racemate or S configuration [1, 7] | weeding effect in post-emergence stage, activity level (growth control rate), Setaria viridis [4] | weeding effect in post-emergence stage, activity level (growth control rate), Digitaria sanguinalis [5] | weeding effect in post-emergence stage, activity level (growth control rate), Abutilon theophrasti [6]
COC(=O)C[S@@+]([O-])c1c(C(F)(F)F)ccc(C(=O)Nc2nnc(C)o2)c1OC [Compound 353] | better herbicidal activity and/or crop safety | 5 (Level 5: growth control rate is above 85%) | 5 (Level 5: growth control rate is above 85%) | – | – | – | –
CCC[S@@+]([O-])c1c(C(F)(F)F)ccc(C(=O)Nc2nnnn2CC)c1F [Compound 382] | – | 5 (Level 5: growth control rate is above 85%) | 5 (Level 5: growth control rate is above 85%) | better herbicidal activity and/or crop safety | – | – | –
CSc1c(C(=O)Nc2nnc(C)o2)ccc(C(F)(F)F)c1[S@+]([O-])CC#N [Compound 564] | – | 5 (Level 5: growth control rate is above 85%) | 5 (Level 5: growth control rate is above 85%) | – | 5 (Level 5: growth control rate is above 85%) | 5 (Level 5: growth control rate is above 85%) | 5 (Level 5: growth control rate is above 85%)
COCC[S@@+]([O-])c1c(C(F)(F)F)ccc(C(=O)Nc2nnc(C)o2)c1SC [Compound 565] | – | 5 (Level 5: growth control rate is above 85%) | 5 (Level 5: growth control rate is above 85%) | – | 5 (Level 5: growth control rate is above 85%) | 5 (Level 5: growth control rate is above 85%) | 5 (Level 5: growth control rate is above 85%)
CCCSc1c(C(=O)Nc2nnc(C)o2)ccc(C(F)(F)F)c1[S@+]([O-])CCC [Compound 570] | – | 5 (Level 5: growth control rate is above 85%) | 5 (Level 5: growth control rate is above 85%) | – | 5 (Level 5: growth control rate is above 85%) | 5 (Level 5: growth control rate is above 85%) | 5 (Level 5: growth control rate is above 85%)
CC[S@@+]([O-])c1c(C(F)(F)F)ccc(C(=O)Nc2nnco2)c1F [Compound 574] | – | 5 (Level 5: growth control rate is above 85%) | 5 (Level 5: growth control rate is above 85%) | – | 5 (Level 5: growth control rate is above 85%) | 5 (Level 5: growth control rate is above 85%) | 5 (Level 5: growth control rate is above 85%)
CCCC[S@@+]([O-])c1c(C(F)(F)F)ccc(C(=O)Nc2nnco2)c1F [Compound 575] | – | 5 (Level 5: growth control rate is above 85%) | 5 (Level 5: growth control rate is above 85%) | – | 5 (Level 5: growth control rate is above 85%) | 5 (Level 5: growth control rate is above 85%) | 5 (Level 5: growth control rate is above 85%)
CCC(C)[S@@+]([O-])c1c(C(F)(F)F)ccc(C(=O)Nc2nnco2)c1F (stereo partly drawn) [Compound 576] | – | 5 (Level 5: growth control rate is above 85%) | 5 (Level 5: growth control rate is above 85%) | – | 5 (Level 5: growth control rate is above 85%) | 5 (Level 5: growth control rate is above 85%) | 5 (Level 5: growth control rate is above 85%)
CC(C)C[S@@+]([O-])c1c(C(F)(F)F)ccc(C(=O)Nc2nnco2)c1F [Compound 577] | – | 5 (Level 5: growth control rate is above 85%) | 5 (Level 5: growth control rate is above 85%) | – | 5 (Level 5: growth control rate is above 85%) | 5 (Level 5: growth control rate is above 85%) | 5 (Level 5: growth control rate is above 85%)
O=C(Nc1nnco1)c1ccc(C(F)(F)F)c([S@+]([O-])CCC(F)(F)F)c1F [Compound 581] | – | 5 (Level 5: growth control rate is above 85%) | 5 (Level 5: growth control rate is above 85%) | – | 5 (Level 5: growth control rate is above 85%) | 5 (Level 5: growth control rate is above 85%) | 5 (Level 5: growth control rate is above 85%)
COCC[S@@+]([O-])c1c(C(F)(F)F)ccc(C(=O)Nc2nnco2)c1F [Compound 582] | – | 5 (Level 5: growth control rate is above 85%) | 5 (Level 5: growth control rate is above 85%) | – | 5 (Level 5: growth control rate is above 85%) | 5 (Level 5: growth control rate is above 85%) | 5 (Level 5: growth control rate is above 85%)
CCC[S@@+]([O-])c1c(C(F)F)ccc(C(=O)Nc2nnnn2C)c1Cl [Compound 618] | – | 5 (Level 5: growth control rate is above 85%) | 5 (Level 5: growth control rate is above 85%) | better herbicidal activity and/or crop safety | – | 5 (Level 5: growth control rate is above 85%) | –
CCC[S@@+]([O-])c1c(C(F)F)ccc(C(=O)Nc2nnnn2C)c1OC [Compound 866] | – | 5 (Level 5: growth control rate is above 85%) | 5 (Level 5: growth control rate is above 85%) | – | 5 (Level 5: growth control rate is above 85%) | 5 (Level 5: growth control rate is above 85%) | 5 (Level 5: growth control rate is above 85%)
